Test results reported in patent US9434724B2, “Quinuclidines for modulating alpha 7 activity” (priority 2014, dated 2016).

Columns and labels:
Human plasma stability = type: in vitro ADME; details: plasma
Protocol: Protocol 1: Studies were carried out in human plasma. All plasma was obtained from Bioreclamation and collected on sodium heparin. Plasma was adjusted to pH 7.4. A DMSO stock was first prepared for the test compound. An aliquot of the DMSO solution was dosed into 1 mL of plasma, which had been pre-warmed to 37° C., at a final test compound concentration of 1 μM. The vials were kept in a benchtop Thermomixer® for the duration of the experiment. Aliquots (100 μL) were taken at each time point (0, 15, 30, 60, and 120 minutes) and added to 96-well plates which had been pre-filled with 300 μL of acetonitrile. Samples were stored at 4° C. until the end of the experiment. After the final time point was sampled, the plate was mixed and then centrifuged at 3,000 rpm for 10 minutes. Aliquots of the supernatant were removed, diluted 1:1 into distilled water, and analyzed by LC-MS/MS. The peak area response ratio to internal standard (PARR) of the compound at 15, 30, 60 and 120 minutes was compared to the PARR at time 0 to determine the percent of test compound remaining at each time point. Half-lives were calculated using GraphPad software, fitting to a single-phase exponential decay equation.
Protocol 2: Studies were carried out in plasma. Plasma was prepared under approval of IRB and IACUC on sodium heparin. The pH of plasma was monitored and used within the range of pH 7.4 to pH 8.0. DMSO stocks were prepared for the test compounds. Aliquots of the DMSO solutions were diluted to 0.05 mM by 0.05 mM Sodium phosphate buffer with 0.5% BSA. Then 10 μL of 0.05 mM solutions were dosed into 90 μL of plasma in duplicates (n=2), which had been pre-warmed to 37° C., at a final test compound concentration of 5 μM. The plates were kept in a 37° C. water bath for the duration of the experiment. At each time point (0, 5, 15, 30, 45, 60, and 120 minutes), 400 μL of acetonitrile was added into corresponding wells. After the final time point was sampled, the plates were shaken at the vibrator (IKA, MTS 2/4) for 10 min (600 rpm/min) and then centrifuged at 5594 g for 15 min (Thermo Multifuge×3R). Aliquots of the supernatant were removed, diluted 1:1 into distilled water, and analyzed by LC-MS/MS. The peak area response ratio to internal standard (PARR) of the compounds at 5, 15, 30, 45, 60, and 120 minutes was compared to the PARR at time 0 to determine the percent of test compound remaining at each time point. Half-lives were calculated using Excel software, fitting to a single-phase exponential decay equation.

[1] = target: rat brain nicotinic receptor (α7 NAChR) (Rattus norvegicus (Rat), UniProt Q05941); type: binding
Sequence of rat brain nicotinic receptor (α7 NAChR) (Q05941 23-502 limits assumed): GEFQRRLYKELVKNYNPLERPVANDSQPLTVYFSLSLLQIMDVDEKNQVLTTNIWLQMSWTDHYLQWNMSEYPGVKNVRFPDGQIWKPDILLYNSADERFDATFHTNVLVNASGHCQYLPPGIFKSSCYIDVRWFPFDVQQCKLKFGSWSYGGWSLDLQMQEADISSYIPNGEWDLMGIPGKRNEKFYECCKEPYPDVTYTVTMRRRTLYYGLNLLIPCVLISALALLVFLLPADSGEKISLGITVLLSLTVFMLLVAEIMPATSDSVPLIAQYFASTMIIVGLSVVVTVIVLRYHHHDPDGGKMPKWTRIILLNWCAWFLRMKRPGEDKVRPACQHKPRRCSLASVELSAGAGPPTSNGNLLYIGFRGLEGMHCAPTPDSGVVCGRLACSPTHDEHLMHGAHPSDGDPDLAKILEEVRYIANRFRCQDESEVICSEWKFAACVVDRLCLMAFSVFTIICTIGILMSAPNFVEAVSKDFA

[2] = Metabolic stability assay in human liver microsomes (HLM); type: in vitro ADME; details: 1 μM
Protocol: (§1) Protocol 1: Studies were carried out in human and rat liver microsomes (“HLM” and “RLM,” respectively). Human and rat liver microsomes were purchased from BD Gentest. DMSO stocks were prepared for the test compounds. Aliquots of the DMSO solutions were diluted to 0.5 mM by acetonitrile, then further diluted by liver microsomes/buffer to 1.5 μM. 30 μL of 1.5 μM solutions were mixed with 15 μL of 6 mM NADPH, which had been pre-warmed to 37° C., at a final test compound concentration of 1 μM. The plates were kept in a 37° C. water bath for the duration of the experiment. At each time point (0, 5, 15, 30, 45 minutes), 135 μL of acetonitrile was added into corresponding wells. After the final time point was sampled, the plates were shaken at a vibrator (IKA, MTS 2/4) for 10 min (600 rpm/min) and then centrifuged at 5594 g for 15 min (Thermo Multifuge×3R). Aliquots of the supernatant were removed, diluted 1:1 into distilled water, and analyzed by LC-MS/MS. The peak area response ratio to internal standard (PARR) of the compounds at 5, 15, 30, 45 minutes was compared to the PARR at time 0 to determine the percent of test compound remaining at each time point. Half-lives were calculated using Excel software, fitting to a single-phase exponential decay equation.
(§2) Protocol 2: Studies were carried out in human and rat liver microsomes. Buffer solutions were prepared as follows: Buffer A: 1.0 L of 0.1 M monobasic Potassium Phosphate buffer containing 1.0 mM EDTA; Buffer B: 1.0 L of 0.1 M Dibasic Potassium Phosphate buffer containing 1.0 mM EDTA; Buffer C: 0.1 M Potassium Phosphate buffer, 1.0 mM EDTA, pH 7.4 by titrating 700 mL of buffer B with buffer A while monitoring with a pH meter.
(§3) Reference compound (Ketanserin) and test compound spiking solutions were prepared as follows: 500 μM spiking solution: add 10 μL of 10 mM DMSO stock solution into 190 μL ACN; 1.5 μM spiking solution in microsomes (0.75 mg/mL): add 1.5 μL of 500 μM spiking solution and 18.75 μL of 20 mg/mL liver microsomes into 479.75 μL of Buffer C.
(§4) NADPH stock solution (6 mM) was prepared by dissolving NADPH into buffer C.
(§5) Assay procedure: 30 μL of 1.5 μM spiking solution containing 0.75 mg/mL microsomes solution was dispensed to the wells designated for […]. The plate was pre-incubated at 37° C. for 10 minutes. 15 μL of NADPH stock solution (6 mM) was added to the wells designated as Time 45, and the timer was started. At 30 mM, 15 mM, and 5 mM, 15 μL NADPH stock solution (6 mM) was added to the wells, respectively. At the end of incubation (0 mM), 135 μL of ACN containing IS was added to all the wells. Then 15 μL of NADPH stock solution (6 mM) was added to the wells designated as Time 0. After quenching, the reaction mixtures were centrifuged at 3220 g for […]. Following centrifugation, 50 μL of the supernatant was transferred from each well into a 96-well sample plate containing 50 μL of ultra-pure water (Millipore) for LC/MS analysis. The peak area response (PARR) ratio to internal standard of the compounds at 5, 15, 30, and 45 minutes was compared to the PARR at time 0 to determine the percent of test compound remaining at each time point. Half-lives were calculated using Excel software, fitting to a single-phase exponential decay equation.

[3] = Metabolic stability assay in rat liver microsomes (RLM); type: in vitro ADME; details: 1 μM
Protocol: as §1, §2, §3, §4, §5

[4] = Protocol No. 1, human liver microsomes
[5] = Protocol No. 1, rat liver microsomes

| Compound | % Remaining @ 2 h (Human plasma stability; Protocol No. 2, 5 μM, 37° C.) | IC50 [1] | Ki [1] | HLM [2, 4] | RLM [3, 5] | % Remaining @ 2 h (Human plasma stability; human, 2 h, 5 μM) | HLM ([2]; human, microsomes) | RLM ([3]; rat, microsomes) | T1/2 (Human plasma stability; human) | T1/2 (Human plasma stability; Protocol No. 2, 5 μM, 37° C.) |
| --- | --- | --- | --- | --- | --- | --- | --- | --- | --- | --- |
| Cl.O=C(OCC12CCN(CC1)CC2)c1c[nH]c2cc(Cl)cc(Cl)c12 [Compound 71, quinuclidin-4-ylmethyl 4,6-dichloro-1H-indole-3-carboxylate hydrochloride] | 72.03% | 457 nM | 394 nM | 6.768 mL/min/kg | 121.175 mL/min/kg |  |  |  |  |  |
| Cl.O=C(OCC12CCN(CC1)CC2)c1c[nH]c2cc(F)cc(Cl)c12 [Compound 64, quinuclidin-4-ylmethyl 4-chloro-6-fluoro-1H-indole-3-carboxylate hydrochloride] | 76.61% | 337 nM | 291 nM | 2.7474 mL/min/kg | 77.4932 mL/min/kg |  |  |  |  |  |
| O=C(OCC12CCN(CC1)CC2)c1c[nH]c2ccc(F)c(Br)c12 [Compound 67, quinuclidin-4-ylmethyl 4-bromo-5-fluoro-1H-indole-3-carboxylate] |  | 201 nM | 173 nM |  |  | 98.92% | 6.65 mL/min/kg | 594.86 mL/min/kg |  |  |
| COc1c(C)ccc2[nH]cc(C(=O)OCC34CCN(CC3)CC4)c12 [Compound 75, quinuclidin-4-ylmethyl 4-methoxy-5-methyl-1H-indole-3-carboxylate] |  | 52.5 nM | 45 nM |  |  | 120.98% | 5.749 mL/min/kg | 474.267 mL/min/kg | ∞ |  |
| COc1cc2c(C(=O)OCC34CCN(CC3)CC4)c[nH]c2cc1Cl [Compound 69, quinuclidin-4-ylmethyl 6-chloro-5-methoxy-1H-indole-3-carboxylate] |  | 394 nM | 340 nM |  |  | 78.66% | 8.8 mL/min/kg | 238.87 mL/min/kg |  |  |
| Cc1cc2c(C(=O)OCC34CCN(CC3)CC4)c[nH]c2cc1F [Compound 58, quinuclidin-4-ylmethyl 6-fluoro-5-methyl-1H-indole-3-carboxylate] |  | 1810 nM | 1550 nM |  |  |  |  |  |  |  |
| COc1cc(C#N)cc2[nH]cc(C(=O)OCC34CCN(CC3)CC4)c12 [Compound 77, quinuclidin-4-ylmethyl 6-cyano-4-methoxy-1H-indole-3-carboxylate] |  | 423 nM | 363 nM |  |  | 71.03% | 10.4452 mL/min/kg | 87.668 mL/min/kg |  |  |
| O=C(OCC12CCN(CC1)CC2)c1c[nH]c2cccc(C3CC3)c12 [Compound 61, Quinuclidin-4-ylmethyl 4-cyclopropyl-1H-indole-3-carboxylate] |  | 1890 nM | 1620 nM |  |  | 93.59% | 10.81 mL/min/kg | 434.65 mL/min/kg |  |  |
| Cc1ccc2[nH]cc(C(=O)OCC34CCN(CC3)CC4)c2c1C [Compound 70, quinuclidin-4-ylmethyl 4,5-dimethyl-1H-indole-3-carboxylate] |  | 315 nM | 272 nM |  |  | 71.56% | 0 mL/min/kg | 1349.06 mL/min/kg |  |  |
| Cc1cc2[nH]cc(C(=O)OCC34CCN(CC3)CC4)c2cc1Cl.Cl [Compound 66, quinuclidin-4-ylmethyl 5-chloro-6-methyl-1H-indole-3-carboxylate hydrochloride] | 71.77% | 1190 nM | 1010 nM | 0 mL/min/kg | 934.845 mL/min/kg |  |  |  |  |  |
| Cc1cc2c(C(=O)OCC34CCN(CC3)CC4)c[nH]c2cc1Cl [Compound 78, quinuclidin-4-ylmethyl 6-chloro-5-methyl-1H-indole-3-carboxylate] |  | 1130 nM | 970 nM |  |  | 77.57% | 0 mL/min/kg | 679.777 mL/min/kg |  |  |
| COc1cc2c(C(=O)OCC34CCN(CC3)CC4)c[nH]c2cc1O [Compound 86, quinuclidin-4-ylmethyl 6-hydroxy-5-methoxy-1H-indole-3-carboxylate] |  |  |  |  |  | 22.88% | 7.35 mL/min/kg | 17.38 mL/min/kg |  |  |
| COc1cc2c(C(=O)OCC34CCN(CC3)CC4)c[nH]c2cc1C.Cl [Compound 79, quinuclidin-4-ylmethyl 5-methoxy-6-methyl-1H-indole-3-carboxylate hydrochloride] | 56.12% |  |  | 10.72 mL/min/kg | 576.18 mL/min/kg |  |  |  |  |  |
| Cc1ccc2[nH]cc(C(=O)OCC34CCN(CC3)CC4)c2c1Br [Compound 68, quinuclidin-4-ylmethyl 4-bromo-5-methyl-1H-indole-3-carboxylate] |  | 266 nM | 229 nM |  |  | 103.13% | 3.48 mL/min/kg | 1271.39 mL/min/kg | ∞ |  |
| COc1cc2c(C(=O)OCC34CCN(CC3)CC4)c[nH]c2cc1C#N [Compound 76, quinuclidin-4-ylmethyl 6-cyano-5-methoxy-1H-indole-3-carboxylate] |  | 643 nM | 552 nM |  |  | 72.92% | 20.5897 mL/min/kg | 41.0701 mL/min/kg |  |  |
| quinuclidin-4-ylmethyl 6-fluoro-4-methoxy-1H-indole-3-carboxylate [Compound 82] | 48.22% | 412 nM | 357 nM | 8 mL/min/kg | 433.66 mL/min/kg |  |  |  |  | 2.0738 h |
| O=C(OCC12CCN(CC1)CC2)c1c[nH]c2ccc3c(c12)OCCO3 [Compound 81, quinuclidin-4-ylmethyl 2,3-dihydro-7H-[1,4]dioxino[2,3-e]indole-9-carboxylate] |  |  |  |  |  | 70.89% | 5.94 mL/min/kg | 75.96 mL/min/kg |  |  |
